Here are results for six molecules from DBAASP.

≈ marks a conversion by molar mass, not a printed value. Where “and” joins values, the source holds several entries; their conditions need not be identical. Equal entries are not always repeated.

For orientation: MIC means the lowest concentration that inhibits growth of the organism.

Test systems include Proteus vulgaris; Bacillus megaterium Bm11; Escherichia coli D21; Candida glabrata 090902; Nocardia asteroides; Escherichia coli W160-37; Staphylococcus aureus.
Experiment in all cases: ≥ marks a high value that may be exact or a test limit, other limits are often not marked, values filed in µg/mL are converted to µM
Test [1] relates to Aspergillus flavus KCTC 7375.
Test [2] concerns Candida albicans KCTC 7121.
Test [3] deals with Trichosporon beigelii KCTC 7251.
For test [4], the system named is Fusarium oxysporum KCTC 6084.
The test system of test [5] is Staphylococcus aureus KCTC 1621.
The subject of test [6] is Pseudomonas aeruginosa KCTC 1637.
Test [7] deals with Escherichia coli KCTC 1682.
The test system of test [8] is Bacillus subtilis KCTC 1918.
Test [9] concerns Bacillus megaterium KCTC 1096.
The subject of test [10] is Enterococcus faecalis ATCC 29212.
Test [11] concerns Salmonella typhimurium SL1344.
Test [12] deals with Salmonella enterica subsp. enterica serovar Typhimurium LT2.
For test [13], the system named is Staphylococcus aureus ATCC 29213.
In test [14] the test system is Acinetobacter calcoaceticus Ac11.
For test [15], the system named is Micrococcus luteus ATCC 9341.
For test [16], the system named is Escherichia coli ATCC 25922.
The subject of test [17] is Staphylococcus aureus ATCC 33591.
Test [18] relates to Pseudomonas aeruginosa ATCC 27853.
The subject of test [19] is Escherichia coli ATCC BAA-3051.
For test [20], the system named is Bacillus subtilis ATCC 6051.
Test [21] has as its system Staphylococcus aureus ATCC 25923.
Test [22] concerns Enterococcus faecalis 981.
The subject of test [23] is Psychrobacter faecalis X29.
In test [24] the test system is Staphylococcus pseudintermedius.
Test [25] relates to Salmonella enterica subsp. enterica serovar Typhimurium C77-31.
The subject of test [26] is Candida albicans ATCC 10231.
Test [27] relates to Staphylococcus epidermidis ATCC 12228.
Test [28] has as its system Salmonella enterica subsp. enterica serovar Pullorum C79-13.
Test [29] concerns Salmonella enterica subsp. enterica serovar Enteritidis.
For test [30], the system named is Aeromonas veronii biovar sobria BJCP-5.
Test [31] deals with Bacillus subtilis CMCC 63501.
For test [32], the system named is Staphylococcus aureus ATCC 25929.

Turning to `CC[C@H](C)[C@H](NC(=O)[C@H](CCCCN)NC(=O)[C@H](CCCCN)NC(=O)[C@H](Cc1ccccc1)NC(=O)[C@H](CC(C)C)NC(=O)[C@H](CCCCN)NC(=O)[C@H](Cc1c[nH]c2ccccc12)NC(=O)[C@@H](N)CCCCN)C(=O)N1CCC[C@H]1C(=O)N[C@@H](CCCCN)C(=O)N[C@@H](Cc1ccccc1)C(=O)N[C@@H](CC(C)C)C(=O)N[C@@H](Cc1cnc[nH]1)C(=O)N[C@@H](CC(C)C)C(=O)N[C@@H](C)C(=O)N[C@@H](CCCCN)C(N)=O` [KWKLFKKIPKFLHLAK], the minimum inhibitory concentration (MIC) was 1.56 µM (≈ 3.16 µg/mL) in the test on Proteus vulgaris; not below 50 µM in test [1]; not below 50 µM in test [2]; not below 50 µM in [3]; not below 50 µM in [4]; 3.12 µM (≈ 6.33 µg/mL) in test [5]. Besides, the MIC in [6] was found to be 6.25 µM (≈ 12.7 µg/mL); in [7], 4.42 µM (≈ 8.95 µg/mL); in [8], 1.56 µM (≈ 3.16 µg/mL); in test [9] it was 3.12 µM (≈ 6.33 µg/mL).
As to `CC[C@H](C)[C@H](N=C(O)[C@H](CC(C)C)N=C(O)[C@H](C)N=C(O)[C@H](Cc1ccccc1)N=C(O)[C@H](Cc1ccccc1)N=C(O)CN)C(=O)N1CCC[C@H]1C(O)=N[C@@H](CCCCN)C(O)=N[C@H](C(O)=N[C@H](C(O)=N[C@@H](CO)C(O)=N[C@@H](CO)C(=O)N1CCC[C@H]1C(O)=N[C@@H](CC(C)C)C(O)=N[C@@H](Cc1ccccc1)C(O)=N[C@@H](CCCCN)C(O)=N[C@H](C(O)=N[C@@H](CC(C)C)C(O)=N[C@@H](CC(C)C)C(O)=N[C@@H](CO)C(O)=N[C@@H](C)C(O)=N[C@H](C(O)=NCCN)C(C)C)[C@@H](C)O)[C@@H](C)CC)[C@@H](C)CC` [GFFALIPKIISSPLFKTLLSAV], the MIC is 3.3 µM (≈ 7.94 µg/mL) in test [10]; not below 52.9 µM in test [11]; 6.2 µM (≈ 14.9 µg/mL) in the test with Bacillus megaterium Bm11; not below 100 µM in test [12]; 3.3 µM (≈ 7.94 µg/mL) in test [13]; not below 100 µM in [14]. Further, the MIC in [15] is not below 100 µM; in [16], 13.2 µM (≈ 31.9 µg/mL); in test [17] it was 3.3 µM (≈ 7.94 µg/mL); in test [18] it was more than 100 µM; in test [19], 13.2 µM (≈ 31.9 µg/mL); against Escherichia coli D21, not below 100 µM. The molecule further came in with an MIC in test [20] of 20 µM (≈ 48.1 µg/mL).
Turning to `CC[C@H](C)[C@H](NC(=O)[C@H](CC(C)C)NC(=O)CNC(=O)[C@@H](NC(=O)[C@@H](NC(=O)[C@@H](N)Cc1ccccc1)[C@@H](C)CC)[C@@H](C)O)C(=O)N[C@@H](CO)C(=O)NCC(=O)N[C@@H](CC(C)C)C(=O)N[C@@H](CCSC)C(=O)N[C@@H](CCCCN)C(=O)N[C@@H](C)C(=O)N[C@@H](CC(C)C)C(N)=O` [FITGLISGLMKAL], the MIC with Candida glabrata 090902 was not below 100 µM; in [21] it was 12.5 µM (≈ 17 µg/mL); in [22], 25 µM (≈ 34.1 µg/mL); against Nocardia asteroides, 12.5 µM (≈ 17 µg/mL); in [23], not below 200 µM.
In the case of `CC[C@H](C)[C@H](NC(=O)[C@@H]1CCCN1C(=O)[C@@H](N)CO)C(=O)N[C@@H](Cc1cnc[nH]1)C(=O)N[C@@H](C)C(=O)N[C@H]1CSSC[C@@H]2NC(=O)[C@H](CO)NC(=O)[C@H](CCCCN)NC(=O)[C@H](CC(C)C)NC(=O)CNC(=O)[C@H](CO)NC(=O)CNC(=O)[C@@H]3CSSC[C@H](NC(=O)[C@H](C(C)C)NC(=O)CNC(=O)[C@H](CCCN=C(N)N)NC(=O)[C@H](CCC(N)=O)NC(=O)[C@H](Cc4ccc(O)cc4)NC(=O)[C@H](CCCN=C(N)N)NC1=O)C(=O)N[C@@H]([C@@H](C)CC)C(=O)N1CCC[C@H]1C(=O)NCC(=O)N1CCC[C@H]1C(=O)N[C@@H](CSSC[C@@H](C(=O)N[C@H](C(=O)N[C@@H](CCCN=C(N)N)C(=O)N[C@@H](CC(N)=O)C(=O)N[C@@H](CCCN=C(N)N)C(=O)N[C@@H](Cc1c[nH]c4ccccc14)C(=O)N[C@@H](C)C(=O)O)C(C)C)NC2=O)C(=O)N[C@@H](CCCN=C(N)N)C(=O)N[C@@H](Cc1c[nH]c2ccccc12)C(=O)N1CCC[C@H]1C(=O)N[C@@H](Cc1ccc(O)cc1)C(=O)N[C@@H](Cc1ccc(O)cc1)C(=O)N[C@@H](CCCN=C(N)N)C(=O)N[C@@H](C(C)C)C(=O)NCC(=O)N[C@@H](CO)C(=O)N3` [SPIHACRYQRGVCIPGPCRWPYYRVGSCGSGLKSCCVRNRWA], the MIC is 2 µM (≈ 9.48 µg/mL) in [10]; not below 54 µM in test [24]; 2.23 µM (≈ 10.6 µg/mL) in test [25]; 54 µM and > 27 µM in test [13]; 16 µM (≈ 75.8 µg/mL) in test [26]; 2.23 µM (≈ 10.6 µg/mL) in test [27]. The MIC was determined as 0.569 µM (≈ 2.7 µg/mL) in test [21]; 2.23 µM (≈ 10.6 µg/mL) in [28]; 4 µM (≈ 19 µg/mL) in test [29]; 0.5 µM (≈ 2.37 µg/mL) in test [30]; 8 µM (≈ 37.9 µg/mL) in [31].
As for `CC[C@H](C)[C@H](NC(=O)[C@H](Cc1c[nH]c2ccccc12)NC(=O)[C@H](CCCCN)NC(=O)[C@H](CO)NC(=O)[C@H](CC(C)C)NC(=O)[C@H](Cc1ccccc1)NC(=O)[C@H](CCCCN)NC(=O)[C@H](CC(C)C)NC(=O)[C@H](CC(C)C)NC(=O)[C@H](CCCCN)NC(=O)[C@@H]1CCCN1)C(=O)NCC(=O)O` [PKLLKFLSKWIG], the MIC is 24 µM (≈ 34.3 µg/mL) in the test with Escherichia coli W160-37 and 14 µM (≈ 20 µg/mL) against Staphylococcus aureus.
As to `CC(C)C[C@H](NC(=O)CNC(=O)[C@H](C)NC(=O)[C@H](CC(C)C)NC(=O)[C@H](CC(C)C)NC(=O)[C@@H](NC(=O)[C@H](CCCCN)NC(=O)[C@H](CC(C)C)NC(=O)[C@H](CC(C)C)NC(=O)[C@H](C)NC(=O)[C@@H]1CCCN1C(=O)[C@H](CC(C)C)NC(=O)[C@H](C)NC(=O)[C@@H](NC(=O)CNC(=O)[C@H](CC(C)C)NC(=O)[C@@H](N)CCCN=C(N)N)[C@@H](C)O)[C@@H](C)O)C(=O)N[C@@H](CC(N)=O)C(=O)NCC(N)=O` [RLGTALPALLKTLLAGLNG], the MIC in test [16] and in test [32] was 17 µM (≈ 32.2 µg/mL) each time.
